In publication PMC12475274, “Harnessing indole scaffolds to identify small-molecule IRE1α inhibitors modulating XBP1 mRNA splicing” (Nature Communications, 2025):
Where “and” joins values, the source holds several entries; their conditions need not be identical. Equal entries are not always repeated. Entries after “also recorded” stand apart in the source; their conditions may differ.

What was measured:
[1] = target: T1, IRE1α in A549 cells (Homo sapiens, UniProt O75460); experiment: Cellular thermal shift assay (CETSA) in A549 cells; type: cell-based
T1 construct: endogenous in cells; host or cells: A549 cells
T1 sequence (O75460 19-977): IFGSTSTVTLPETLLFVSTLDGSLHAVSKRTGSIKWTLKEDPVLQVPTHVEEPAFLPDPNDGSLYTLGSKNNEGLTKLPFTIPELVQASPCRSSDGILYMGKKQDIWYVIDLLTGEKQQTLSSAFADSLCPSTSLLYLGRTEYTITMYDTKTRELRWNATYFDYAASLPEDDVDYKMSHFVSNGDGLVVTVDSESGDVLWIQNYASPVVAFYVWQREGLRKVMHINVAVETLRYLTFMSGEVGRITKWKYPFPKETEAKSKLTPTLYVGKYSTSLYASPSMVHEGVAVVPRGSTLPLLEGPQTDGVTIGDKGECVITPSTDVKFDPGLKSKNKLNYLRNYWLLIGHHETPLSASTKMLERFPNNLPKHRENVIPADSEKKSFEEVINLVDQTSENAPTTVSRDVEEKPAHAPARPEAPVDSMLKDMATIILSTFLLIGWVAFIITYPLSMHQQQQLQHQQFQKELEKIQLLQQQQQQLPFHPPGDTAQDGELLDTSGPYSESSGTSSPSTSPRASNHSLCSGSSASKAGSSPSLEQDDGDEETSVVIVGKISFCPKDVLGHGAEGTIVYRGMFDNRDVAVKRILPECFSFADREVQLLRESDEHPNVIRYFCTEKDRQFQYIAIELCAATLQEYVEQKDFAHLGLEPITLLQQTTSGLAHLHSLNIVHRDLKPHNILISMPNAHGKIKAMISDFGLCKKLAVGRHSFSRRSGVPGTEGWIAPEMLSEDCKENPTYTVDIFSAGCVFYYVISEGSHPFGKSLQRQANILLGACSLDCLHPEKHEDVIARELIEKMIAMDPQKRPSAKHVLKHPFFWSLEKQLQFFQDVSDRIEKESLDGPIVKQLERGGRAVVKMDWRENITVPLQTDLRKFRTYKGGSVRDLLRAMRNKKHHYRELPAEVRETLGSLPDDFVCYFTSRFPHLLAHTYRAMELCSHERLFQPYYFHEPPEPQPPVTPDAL
Method: A549 cells were harvested and seeded into 100 mm standard cell culture dishes at 80% confluency and cultured overnight. For the IA107 experiment, cells were gently washed with pre-cooled DPBS (Gibco,14190169) and lysed in RIPA buffer (Sigma, R0278) supplemented with phosphatase inhibitor (Roch, 4906845001) and 1× protease inhibitor cocktail (Sigma, P8340) for 30 min on ice. Cell lysates were centrifuged at 18,000 × g for 30 min at 4 °C and the supernatants were collected. The lysates were collected together and then aliquoted into 550 μL, the aliquots were incubated with different concentrations of IA107 with a final concentration of 0.1% DMSO for 30 min at room temperature. […]
For the IAPD1 experiment, A549 cells were treated with different concentrations of IAPD1 or DMSO for 4 h (final 0.1% DMSO). […] Lysates were collected by scraping and centrifuged at 18,000 × g for 30 min at 4 °C, and the protein concentrations of the supernatants were quantified using a BCA protein assay kit (Thermo Scientific, 23227) and diluted to 4 μg/μL, then cell lysate was aliquoted into 10 PCR tubes, with 50 μL of lysate per tube. […] After heating, samples were centrifuged at 18,000 × g for 30 min at 4 °C, and supernatants were collected and analyzed by western blot using the method and antibodies aforementioned.

[2] = target: T2, phosphorylated IRE1α (Homo sapiens, UniProt O75460); experiment: Microscale thermophoresis (MST), p-IRE1α; type: binding
T2 construct: Human IRE1α kinase and RNase domain (residues 547–977) was subcloned into pLIB plasmid; His tag (with TEV cleavage site) (N, cleaved yes); made in house; host or cells: Sf9 insect cells, baculovirus (Bac-to-Bac)
T2 sequence (O75460 547-977): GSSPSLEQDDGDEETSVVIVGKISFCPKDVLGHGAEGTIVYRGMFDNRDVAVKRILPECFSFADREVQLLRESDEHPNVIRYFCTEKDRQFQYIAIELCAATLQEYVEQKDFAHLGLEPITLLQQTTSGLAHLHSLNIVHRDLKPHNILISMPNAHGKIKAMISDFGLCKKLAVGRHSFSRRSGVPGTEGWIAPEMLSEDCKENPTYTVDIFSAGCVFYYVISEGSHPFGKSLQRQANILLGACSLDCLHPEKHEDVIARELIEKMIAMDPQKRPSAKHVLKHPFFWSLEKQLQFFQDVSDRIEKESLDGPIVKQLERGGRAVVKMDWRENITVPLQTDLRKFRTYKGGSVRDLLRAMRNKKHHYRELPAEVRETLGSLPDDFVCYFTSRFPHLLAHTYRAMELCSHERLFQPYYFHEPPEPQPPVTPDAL
Method: Dephosphorylated IRE1α protein and phosphorylated IRE1α protein were labeled and purified using Protein Labeling Kit RED-NHS 2nd Generation (NanoTemper, MO-L011), following the manufacturer’s protocol. The labeling buffer contained 50 mM HEPES, pH 7.5, 200 mM NaCl, 2% glycerol, 0.5 mM TCEP, 0.05% tween20. MST experiments were performed using the Monolith Nt.115 instrument (NanoTemper), and binding experiments were conducted according to the instrument’s instructions. Compounds were serially diluted 2-fold and incubated with labeled IRE1α protein at a final concentration of 20 nM. The highest compound concentration measured was 250 μM with a final DMSO concentration of 2.5%. Measurements were carried out using the red detector with 60% excitation power. Data were analyzed using the manufacturer’s software, and results from three individual measurements were merged for analysis.

[3] = target: T3, wild-type full-length IRE1α in A549 cell lysate (Homo sapiens, UniProt O75460); experiment: Thermal stability assay in A549 cell lysate; type: binding
T3 construct: endogenous in cells; host or cells: A549 cells
T3 sequence (O75460 19-977): as the sequence (O75460 19-977) above
Method: A549 cells were harvested and seeded into 100 mm standard cell culture dishes at 80% confluency and cultured overnight. For the IA107 experiment, cells were gently washed with pre-cooled DPBS (Gibco,14190169) and lysed in RIPA buffer (Sigma, R0278) supplemented with phosphatase inhibitor (Roch, 4906845001) and 1× protease inhibitor cocktail (Sigma, P8340) for 30 min on ice. Cell lysates were centrifuged at 18,000 × g for 30 min at 4 °C and the supernatants were collected. The lysates were collected together and then aliquoted into 550 μL, the aliquots were incubated with different concentrations of IA107 with a final concentration of 0.1% DMSO for 30 min at room temperature. After the incubation, the sample was aliquoted into 10 PCR tubes, with 50 μL of lysate per tube and further heated at the indicated temperatures using a PCR cycler (25 °C for 1 min; indicated temperatures for 3 min; 16 °C, hold). After heating, the lysates were centrifuged at 18,000 × g for 30 min at 4 °C and the supernatants were collected and mixed with 4x protein loading buffer (Invitrogen, 2463559), heated at 95 °C for 10 min and separated by 4–20% MP stain-free gels (Bio-Rad, 4568095) then transferred to 0.45 μm PVDF membranes (Bio-Rad, 1704274) using the Trans-Blot Turbo Transfer System with the preprogrammed standard SD protocol (Bio-Rad). […]

[4] = target: GSG2 (Haspin) (Homo sapiens, UniProt Q8TF76); experiment: Kinase profiling (SelectScreen), Adapta; type: biochemical
Sequence of GSG2 (Haspin) (Q8TF76 whole entry): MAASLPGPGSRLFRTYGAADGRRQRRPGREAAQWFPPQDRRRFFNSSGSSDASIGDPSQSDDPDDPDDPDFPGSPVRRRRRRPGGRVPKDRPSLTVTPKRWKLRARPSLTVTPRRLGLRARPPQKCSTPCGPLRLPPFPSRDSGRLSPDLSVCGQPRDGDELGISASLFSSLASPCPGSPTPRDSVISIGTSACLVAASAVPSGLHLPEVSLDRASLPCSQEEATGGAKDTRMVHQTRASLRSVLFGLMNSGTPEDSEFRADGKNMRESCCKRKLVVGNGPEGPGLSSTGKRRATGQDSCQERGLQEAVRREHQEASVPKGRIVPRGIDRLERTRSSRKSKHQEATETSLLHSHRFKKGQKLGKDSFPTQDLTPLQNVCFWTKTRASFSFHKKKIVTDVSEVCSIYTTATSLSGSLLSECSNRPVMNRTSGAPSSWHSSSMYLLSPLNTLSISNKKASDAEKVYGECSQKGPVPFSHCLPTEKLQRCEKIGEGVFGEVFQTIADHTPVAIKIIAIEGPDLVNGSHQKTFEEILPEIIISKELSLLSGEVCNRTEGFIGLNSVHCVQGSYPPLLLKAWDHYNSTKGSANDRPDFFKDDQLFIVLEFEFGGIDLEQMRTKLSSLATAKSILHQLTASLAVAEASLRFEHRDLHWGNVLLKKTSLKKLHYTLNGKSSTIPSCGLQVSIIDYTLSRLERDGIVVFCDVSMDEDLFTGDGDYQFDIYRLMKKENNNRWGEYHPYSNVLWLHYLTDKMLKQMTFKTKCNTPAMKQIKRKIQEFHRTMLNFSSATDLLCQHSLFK
Method: Kinase profiling was conducted by the SelectScreen Kinase Profiling Services (Thermo Fisher), using Z′-LYTE, Adapta, or LanthaScreen Eu Kinase Binding Assay for different kinases. The kinome phylogenetic tree was generated using the KinMap web portal.

[5] = target: T4, IRE1α (Homo sapiens, UniProt O75460); experiment: Michaelis–Menten kinetic analysis with XBP1 RNA substrate; type: biochemical
T4 construct: Human IRE1α kinase and RNase domain (residues 547–977) was subcloned into pLIB plasmid; His tag (with TEV cleavage site) (N, cleaved yes); made in house; host or cells: Sf9 insect cells, baculovirus (Bac-to-Bac)
T4 sequence (O75460 547-977): as the sequence (O75460 547-977) above
Method: I/s (fluorescence intensity/second), 7.98 FL. I/s, 2.33 FL. I/s and 0.9 FL. I/s, respectively.
The dual-labeled RNA substrate with a FAM at 5’ and the BHQ-1 at 3’ containing the XBP1 sequence (5′FAM-[…]-3′BHQ1) was purchased from Integrated DNA Technologies (IDT). The FRET-based IRE1α RNase activity assay was carried out in reaction buffer containing 20 mM HEPES pH 7.5, 50 mM KOAc, 1 mM MgOAc2, 1 mM DTT, 0.05% v/v TritonX-100, at a total reaction volume of 20 μL in a 384-well black plate (4514, Corning). […] […] The indicated compound and IRE1α protein were incubated for 30 min at room temperature before the substrate was added to the reaction. The plate was then kinetically read over one hour at room temperature using a TECAN Spark plate reader. The measurement was carried out using the fluorescence top reading mode at the excitation wavelength of 485 nm and the emission wavelength of 535 nm with a 10 nm excitation and emission bandwidth. The linear part of the reaction curve was adopted and fitted with sample linear regression to obtain the slope, and the slope was adopted to reflect the reaction rate. The inhibition % was calculated by using the equation: inhibition% = 100 × (slope of DMSO control – slope of the sample)/(slope of DMSO control – slope of blank control), DMSO control: DMSO with protein and RNA substrate; Blank control: DMSO with RNA substrate. The IC50 values were calculated using the concentration-response model in GraphPad Prism 9.

SMILES | treatment concentration below which stabilizing effects are negligible (CETSA) ([1]; A549 cells) | thermal stabilization of cellular IRE1α, CETSA ([1]; A549 cells treated 4 h) | Kd [2] | thermal stabilization of full-length IRE1α in cell lysate [3] | inhibition at 5 µM [4] | inhibition mechanism towards the XBP1 mRNA substrate [5] | Vmax ([5]; 0.01 μM IA107) | Vmax ([5]; 0.1 μM IA107) | Vmax ([5]; 1 μM IA107) | IRE1a Velocity ([5]; RNA 5000 nM, IA107 0.01 μM) | IRE1a Velocity ([5]; RNA 5000 nM, IA107 0.1 μM) | IRE1a Velocity ([5]; RNA 5000 nM, IA107 1 μM) | IRE1a Velocity ([5]; RNA 10000 nM, IA107 0.01 μM) | IRE1a Velocity ([5]; RNA 10000 nM, IA107 0.1 μM) | IRE1a Velocity ([5]; RNA 10000 nM, IA107 1 μM)
CCOC(=O)CCc1c(C)n(C(=O)c2ccccc2)c2ccc(Br)cc12 [IAPD1] | lower than 2.22 μM | dose-dependently stabilized; also recorded: concentration-dependently stabilized; also recorded: concentration-dependently increased |  |  |  |  |  |  |  |  |  |  |  |  | 
Cc1c(CCC(=O)O)c2cc(Br)ccc2n1C(=O)c1ccccc1 [IA107] |  |  | 152 nM | concentration-dependently stabilized; also recorded: stabilized full-length IRE1α in cell lysate; also recorded: stabilized the full-length IRE1α in a concentration-dependent manner | 4% | non-competitive | 7.98 FL. I/s | 2.33 FL. I/s | 0.9 FL. I/s | 7.329 FL.I/s and 6.249 FL.I/s | 1.807 FL.I/s and 2.323 FL.I/s | 0.681 FL.I/s and 0.661 FL.I/s | 7.224 FL.I/s and 6.354 FL.I/s | 1.848 FL.I/s and 1.988 FL.I/s | 0.902 FL.I/s and 0.839 FL.I/s
